# Experimental data taken from ChEMBL document CHEMBL1158328, “Three new pseudodistomins, piperidine alkaloids from the ascidian Pseudodistoma megalarva” (1997).
# Experiments:
# Format in all cases: functional
# Saccharomyces cerevisiae [1] = experiment: DNA damaging activity against wild-type Saccharomyces cerevisiae assessed as drug level required to produce 12 mm zone of inhibition assessed per 100 uL after 48 hrs
# Saccharomyces cerevisiae [2] = experiment: DNA damaging activity against RAD52 DNA repair gene deficient Saccharomyces cerevisiae mutant assessed as drug level required to produce 12 mm zone of inhibition assessed per 100 uL after 48 hrs
# Saccharomyces cerevisiae [3] = experiment: DNA damaging activity against RAD52 DNA repair gene/topoisomerase 1 deficient Saccharomyces cerevisiae GAL4:RAD52 mutant assessed as drug level required to produce 12 mm zone of inhibition assessed per 100 uL in glucose medium after 48 hrs
# Saccharomyces cerevisiae [4] = experiment: DNA damaging activity against RAD52 DNA repair gene/topoisomerase 1 deficient Saccharomyces cerevisiae GAL4:RAD52 mutant assessed as drug level required to produce 12 mm zone of inhibition assessed per 100 uL in galactose medium after 48 hrs
SMILES,Activity (Saccharomyces cerevisiae [1]) [µg],Activity (Saccharomyces cerevisiae [2]) [µg],Activity (Saccharomyces cerevisiae [3]) [µg],Activity (Saccharomyces cerevisiae [4]) [µg]
CCCC/C=C/C=C/CCC/C=C/C=C/[C@@H]1C[C@H](O)[C@H](N)CN1 [PSEUDODISTOMIN C],38,20,12,13
COC1=C(N)C(=O)c2nc(-c3nc(C(=O)O)c(C)c(-c4ccc(OC)c(OC)c4O)c3N)ccc2C1=O [STREPTONIGRIN],>0.1,0.012,0.009,>0.1
CCCC/C=C/C=C/CCCCC[C@@H]1C[C@H](O)[C@H](N)CN1 [PSEUDODISTOMIN E],12,4.3,1.8,2.3
CO[C@H]1C[C@@H]2CC[C@@H](C)[C@@](O)(O2)C(=O)C(=O)N2CCCC[C@H]2C(=O)O[C@H]([C@H](C)C[C@@H]2CC[C@@H](O)[C@H](OC)C2)CC(=O)[C@H](C)/C=C(\C)[C@@H](O)[C@@H](OC)C(=O)[C@H](C)C[C@H](C)/C=C/C=C/C=C/1C [SIROLIMUS],0.00043,0.00057,0.00044,0.00074
CCCC/C=C/C=C/CCC/C=C/C=C/[C@@H]1C[C@@H](O)[C@@H](N)CN1 [PSEUDODISTOMIN F],20,9,3.1,3.3
CCCC/C=C/C=C/CCCCC[C@@H]1C[C@@H](O)[C@@H](N)CN1 [PSEUDODISTOMIN B],13,1.8,1.5,1.5
CCCC/C=C/C=C/CCCCC[C@@H]1C[C@H](O)[C@@H](N)CN1 [PSEUDODISTOMIN D],11,3.8,1.9,2
COc1cc(NS(C)(=O)=O)ccc1Nc1c2ccccc2nc2ccccc12 [AMSACRINE],>20,8.2,2.7,>20
